Among the data in patent publication US9006450B2 (Boehringer Ingelheim International GmbH, priority 2010, dated 2015) are IC50 values, retold here.

T1 sequence (O00763 129-2458 limits assumed): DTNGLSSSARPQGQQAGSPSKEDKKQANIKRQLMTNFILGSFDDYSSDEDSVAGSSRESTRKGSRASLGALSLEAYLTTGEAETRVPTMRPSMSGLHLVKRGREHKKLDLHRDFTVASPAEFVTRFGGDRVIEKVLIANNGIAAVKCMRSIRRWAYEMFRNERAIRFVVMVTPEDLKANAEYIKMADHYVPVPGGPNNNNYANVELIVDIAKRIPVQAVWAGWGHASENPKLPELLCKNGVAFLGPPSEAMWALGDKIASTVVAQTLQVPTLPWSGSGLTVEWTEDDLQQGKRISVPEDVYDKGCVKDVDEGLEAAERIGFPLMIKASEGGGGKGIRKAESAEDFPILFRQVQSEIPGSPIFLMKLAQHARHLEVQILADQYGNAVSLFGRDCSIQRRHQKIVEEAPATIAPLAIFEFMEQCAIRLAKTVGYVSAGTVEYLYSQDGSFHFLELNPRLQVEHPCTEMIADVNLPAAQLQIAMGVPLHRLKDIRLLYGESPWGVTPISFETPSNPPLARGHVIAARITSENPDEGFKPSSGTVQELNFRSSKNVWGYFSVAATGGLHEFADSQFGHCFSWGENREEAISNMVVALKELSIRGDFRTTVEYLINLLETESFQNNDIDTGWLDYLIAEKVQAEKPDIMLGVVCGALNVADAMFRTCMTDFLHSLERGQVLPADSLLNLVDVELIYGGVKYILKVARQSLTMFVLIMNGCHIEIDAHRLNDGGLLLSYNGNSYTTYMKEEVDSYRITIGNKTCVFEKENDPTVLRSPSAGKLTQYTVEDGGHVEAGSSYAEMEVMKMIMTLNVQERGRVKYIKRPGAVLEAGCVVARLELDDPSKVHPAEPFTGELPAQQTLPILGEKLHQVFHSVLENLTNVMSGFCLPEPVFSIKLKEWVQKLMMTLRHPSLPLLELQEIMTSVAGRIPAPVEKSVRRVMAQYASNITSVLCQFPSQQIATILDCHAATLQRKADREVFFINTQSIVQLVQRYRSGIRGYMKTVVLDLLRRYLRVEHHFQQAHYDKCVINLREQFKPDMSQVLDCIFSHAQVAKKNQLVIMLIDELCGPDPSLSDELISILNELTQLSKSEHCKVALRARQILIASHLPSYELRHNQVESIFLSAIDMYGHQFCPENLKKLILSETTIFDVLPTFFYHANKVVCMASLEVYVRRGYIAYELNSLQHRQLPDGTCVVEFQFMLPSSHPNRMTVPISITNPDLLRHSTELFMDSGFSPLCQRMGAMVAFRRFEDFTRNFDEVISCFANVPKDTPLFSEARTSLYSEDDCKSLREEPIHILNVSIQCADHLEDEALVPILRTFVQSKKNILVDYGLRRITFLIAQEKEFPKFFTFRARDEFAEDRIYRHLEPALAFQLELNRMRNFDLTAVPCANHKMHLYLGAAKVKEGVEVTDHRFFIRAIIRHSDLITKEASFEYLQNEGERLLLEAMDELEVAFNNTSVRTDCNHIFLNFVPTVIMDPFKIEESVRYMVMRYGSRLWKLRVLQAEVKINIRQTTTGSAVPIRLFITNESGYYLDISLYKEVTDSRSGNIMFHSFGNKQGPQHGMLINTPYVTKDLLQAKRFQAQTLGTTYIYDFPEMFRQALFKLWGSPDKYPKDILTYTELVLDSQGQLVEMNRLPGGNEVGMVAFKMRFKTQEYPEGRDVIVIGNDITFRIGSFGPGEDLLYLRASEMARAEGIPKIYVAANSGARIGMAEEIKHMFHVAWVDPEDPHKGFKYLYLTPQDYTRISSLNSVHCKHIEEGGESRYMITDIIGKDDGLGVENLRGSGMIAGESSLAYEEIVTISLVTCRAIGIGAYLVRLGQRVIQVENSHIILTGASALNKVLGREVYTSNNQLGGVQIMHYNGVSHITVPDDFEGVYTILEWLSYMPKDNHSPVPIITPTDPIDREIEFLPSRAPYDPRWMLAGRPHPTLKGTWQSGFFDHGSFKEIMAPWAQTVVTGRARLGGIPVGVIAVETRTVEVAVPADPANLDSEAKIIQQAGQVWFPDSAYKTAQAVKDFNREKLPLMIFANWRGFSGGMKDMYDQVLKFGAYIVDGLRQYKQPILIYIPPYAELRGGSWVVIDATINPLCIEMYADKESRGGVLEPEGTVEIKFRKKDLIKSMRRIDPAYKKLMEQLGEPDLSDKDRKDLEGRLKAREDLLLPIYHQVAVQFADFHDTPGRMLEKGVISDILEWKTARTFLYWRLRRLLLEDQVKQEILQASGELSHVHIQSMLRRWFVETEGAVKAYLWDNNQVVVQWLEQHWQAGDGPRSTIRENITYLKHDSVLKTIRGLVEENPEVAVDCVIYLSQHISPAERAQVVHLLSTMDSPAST

This test addresses T1, human ACC2 (Homo sapiens, UniProt O00763).
T1 construct: made in house; host or cells: insect cells (baculoviral expression system)
The test is described as follows: ACC2 assay, spectrophotometric 384 well assay (NADH-linked, coupled lactate dehydrogenase/pyruvate kinase). In kind it is biochemical. Conditions: ACC2 assay, hACC2 construct lacking 128 N-terminal amino acids, 25° C., 340 nm; read-out: IC50. The method in brief:
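ADP output tracked via pyruvate kinase/lactate dehydrogenase NADH oxidation, slope at 340 nm over 15 min, 25° C, with 500 μM ATP and 200 μM each acetyl-CoA and NADH. Enzyme: insect-cell-expressed human ACC2, N-terminal 128 residues deleted; pH 7.5 Tris with citrate, KHCO3. IC50 from four-parameter regression versus vehicle and no-acetyl-CoA controls.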
As to `CC(=O)N[C@@H](C)c1ccc(C2CCN(c3ccc(NCC(C)C)cc3)CC2)cc1` [Example 24.3], the 50% inhibitory concentration (IC50) worked out at 1100 nM. The figure for `CC(=O)N[C@@H](C)c1ccc(C2CCN(c3ncc(C(=O)NCC4CCN(c5ccccc5)C4)cn3)CC2)cc1` (some centres unmarked) [Example 18.67] is 23700 nM; for `COc1cc(N2CCC(c3ccc([C@H](C)NC(C)=O)cc3)CC2)ccc1OCC(C)C` [Example 8.29] it is 890 nM. The figure for `CCOc1ccc(N2CCC(c3ccc([C@H](C)NC(C)=O)cc3)CC2)cc1OC` [Example 8.18] is 2700 nM; for `CC(=O)N[C@@H](C)c1ccc(C2CCN(c3ccc4oc(C)nc4c3)CC2)cc1` [Example 15.13] it is 970 nM; for `CC(=O)N[C@@H](C)c1ccc(C2CCN(c3ncc(-c4ccc(C)cn4)cn3)CC2)cc1` [Example 10.121] it is 110 nM. Then `COc1cc(-c2cnc(N3CCC(c4ccc([C@H](C)NC(C)=O)cc4)CC3)nc2)ccn1` [Example 10.29], with 130 nM. On to `CCOc1ccc(N2CCC(c3ccc([C@H](C)NC(=O)OC)cc3)CC2)c(F)c1` [Example 1.170], for which the IC50 turned out to be 400 nM.

Regarding `COC(=O)c1cnc(N2CCC(c3ccc([C@H](C)NC(C)=O)cc3)CC2)nc1` [Example 4.36], the IC50 amounted to 1200 nM. Then `CCOc1cccc(-c2ccnc(N3CCC(c4ccc([C@H](C)NC(C)=O)cc4)CC3)n2)c1` [Example 22.10], with 240 nM; and `COc1cncc(-c2cnc(N3CCC(c4ccc([C@H](C)NC(C)=O)cc4)CC3)nc2)c1` [Example 10.68], with 320 nM. Then `CC(=O)N[C@@H](C)c1ccc(C2CCN(c3ncc(C(=O)NC4COC4)cn3)CC2)cc1` [Example 18.39], with 15200 nM. The figure for `CCOc1ccc(N2CCC(c3ccc([C@H](C)NC(=O)CCOC)cc3)CC2)cc1` [Example 6.30] is 1100 nM. For the compound `CC(=O)N[C@@H](C)c1ccc(C2CCN(c3ccc(OCc4ccoc4)cc3)CC2)cc1` [Example 1.186], the IC50 was 170 nM. Then `CC(=O)N[C@@H](C)c1ccc(C2CCN(c3ccc4oc(C(C)C)nc4c3)CC2)cc1` [Example 15.6], with 260 nM; and `C[C@H](NC(=O)C1CC1)c1ccc(C2CCN(c3ccnc(Oc4cncnc4)c3)CC2)cc1` [Example 1.108], with 930 nM; and `CC(=O)N[C@@H](C)c1ccc(C2CCN(c3ncc(C(=O)NCC4CCN(Cc5ccccc5)C4)cn3)CC2)cc1` (some centres unmarked) [Example 18.62], with 11800 nM.

With `CCOc1ccc(N2CCC(c3ccc([C@H](C)NC(=O)NCc4ccncn4)cc3)CC2)cc1` [Example 14.60], the IC50 worked out at 2100 nM. The figure for `CC(=O)N[C@@H](C)c1ccc(C2CCN(c3cc(-n4ccc(=N)cc4)ncn3)CC2)cc1` [Example 11.52] is 18500 nM. Take `CC(=O)N[C@@H](C)c1ccc(C2CCN(c3cc(NCc4ccco4)ncn3)CC2)cc1` [Example 11.59]: the IC50 came out at 6100 nM. The figure for `COc1ccnc(N2CCC(c3ccc([C@H](C)NC(C)=O)cc3)CC2)c1` [Example 4.16] is 1100 nM.

On to `CC(=O)N[C@@H](C)c1ccc(C2CCN(c3ncc(-c4cc(C)ccc4C)cn3)CC2)cc1` [Example 10.54], for which the IC50 stood at 420 nM. The figure for `CC(=O)N[C@@H](C)c1ccc(C2CCN(c3ccnc(NC(C)c4ccccc4)n3)CC2)cc1` (some centres unmarked) [Example 11.39] is 6600 nM; for `CC(C)Oc1cccc(N2CCC(c3ccc([C@H](C)NC(=O)N(C)C)cc3)CC2)c1` [Example 1.81] it is 280 nM; for `CC(=O)N[C@@H](C)c1ccc(C2CCN(c3ncc(-c4ccc(C)c(Cl)c4)cn3)CC2)cc1` [Example 10.67] it is 90 nM.

On to `CC(=O)N[C@@H](C)c1ccc(C2CCN(c3cc(OCCc4ccccc4)ncn3)CC2)cc1` [Example 11.14], for which the IC50 came out at 3500 nM. As for `CC(=O)N[C@@H](C)c1ccc(C2CCN(c3ncc4nc(-c5ccc(C)s5)oc4n3)CC2)cc1` [Example 5.6], the 50% inhibitory concentration (IC50) was 60 nM. Take `CC(=O)N[C@@H](C)c1ccc(C2CCN(c3ccc(OC4COC4)cc3)CC2)cc1` [Example 8.9]: the half-inhibitory concentration (IC50) worked out at 600 nM.

For the compound `CC(C)Oc1cc(N2CCC(c3ccc([C@H](C)NC(=O)N(C)C)cc3)CC2)ncn1` [Example 20.3], the IC50 was 180 nM.

As for `CC(=O)N[C@@H](C)c1ccc(C2CCN(c3ccc(OCCC4CC4)cc3)CC2)cc1` [Example 8.63], the IC50 is 100 nM. Then `CC(=O)N[C@@H](C)c1ccc(C2CCN(c3ncc(-c4ccccc4)c(Cl)n3)CC2)cc1` [Example 5.50, (S)—N-(1-{4-[1-(4-chloro-5-phenyl-pyrimidin-2-yl)-piperidin-4-yl]-phenyl}-ethyl)-acetamide], with 90 nM; and `CC(=O)N[C@@H](C)c1ccc(C2CCN(c3ccnc(Oc4ccc(F)cc4)n3)CC2)cc1` [Example 11.6], with 180 nM; and `CC(=O)N[C@@H](C)c1ccc(C2CCN(c3ncc(-c4ccccc4CC#N)cn3)CC2)cc1` [Example 10.97], with 8200 nM. Turning to `C[C@H](NC(=O)N(C)C)c1ccc(C2CCN(c3ncc(C4CC4)cn3)CC2)cc1` [Example 4.304], the concentration for half-maximal inhibition (IC50) worked out at 240 nM. The figure for `CC(=O)N[C@@H](C)c1ccc(C2CCN(c3ccc(OCc4ccccc4)cc3)CC2)cc1` [Example 9.34] is 150 nM. Then `CC(=O)N[C@@H](C)c1ccc(C2CCN(c3ncc4nc(-c5ccccc5)oc4n3)CC2)cc1` [Example 4.28], with 60 nM; and `CC(=O)N[C@@H](C)c1ccc(C2CCN(c3ccnc(OCc4cccnc4)n3)CC2)cc1` [Example 11.34], with 23200 nM; and `CC(=O)N[C@@H](C)c1ccc(C2CCN(c3cc(C(F)(F)F)ccn3)CC2)cc1` [Example 4.18], with 320 nM.

`CC(=O)N[C@@H](C)c1ccc(C2CCN(c3ccc(OCC4CCC4)c(C#N)c3)CC2)cc1` [Example 9.36]: the IC50 is 3300 nM. For `CC(=O)N[C@@H](C)c1ccc(C2CCN(c3ccnc(OCCC4CC4)n3)CC2)cc1` [Example 11.4], the concentration for half-maximal inhibition (IC50) is 450 nM.

As for `COC1CCN(C(=O)c2cnc(N3CCC(c4ccc([C@H](C)NC(C)=O)cc4)CC3)nc2)CC1` [Example 18.24], the IC50 came out at 5200 nM. Turning to `CC(=O)N[C@@H](C)c1ccc(C2CCN(c3nc(-c4ccccc4)cs3)CC2)cc1` [Example 5.20], the half-maximal inhibitory concentration (IC50) amounted to 1200 nM. As for `CC(=O)N[C@@H](C)c1ccc(C2CCN(c3ncc(-c4ccc(C)cc4C)cn3)CC2)cc1` [Example 10.48], the IC50 is 1200 nM.

`CC(=O)N[C@@H](C)c1ccc(C2CCN(c3ncc(-c4ccc(Cl)c(C)c4)cn3)CC2)cc1` [Example 10.76]: the 50% inhibitory concentration (IC50) is 110 nM. The figure for `CCCOc1ccc(N2CCC(c3ccc([C@H](C)NC(C)=O)cc3)CC2)cc1C#N` [Example 8.32] is 3200 nM; for `CC(=O)N[C@@H](C)c1ccc(C2CCN(c3ccnc(Oc4cncnc4)c3)CC2)cc1` [Example 3.5] it is 590 nM. For `CC(=O)N[C@@H](C)c1ccc(C2CCN(c3ccc(C4CC4)cn3)CC2)cc1` [Example 10.304], the half-inhibitory concentration (IC50) was found to be 750 nM. The figure for `CNC(=O)CNC(=O)c1cnc(N2CCC(c3ccc([C@H](C)NC(C)=O)cc3)CC2)nc1` [Example 18.72] is 8900 nM; for `CC(=O)N[C@@H](C)c1ccc(C2CCN(c3ccnc(O[C@@H]4CCOC4)c3)CC2)cc1` [Example 19.20] it is 130 nM; for `CC(=O)N[C@@H](C)c1ccc(C2CCN(c3ccc(C)nc3)CC2)cc1` [Example 15.5] it is 17700 nM. The figure for `COc1nc(N2CCC(c3ccc([C@H](C)NC(C)=O)cc3)CC2)ncc1-c1ccccc1` [Example 21.1, (S)—N-(1-{4-[1-(4-Methoxy-5-phenyl-pyrimidin-2-yl)-piperidin-4-yl]-phenyl}-ethyl)-acetamide] is 260 nM; for `CC(=O)N[C@@H](C)c1ccc(C2CCN(c3ncc(-c4cncc(C#N)c4)cn3)CC2)cc1` [Example 10.79] it is 1100 nM; for `CC(=O)N[C@@H](C)c1ccc(C2CCN(c3nccc(I)c3C)CC2)cc1` [Example 5.39] it is 340 nM. The figure for `CC(=O)N[C@@H](C)c1ccc(C2CCN(c3ncc(-c4ccc5[nH]ncc5c4)cn3)CC2)cc1` [Example 10.86] is 5900 nM; for `COc1ccc(-c2cnc(N3CCC(c4ccc([C@H](C)NC(C)=O)cc4)CC3)nc2)cc1` [Example 4.41] it is 100 nM. For the compound `COC(=O)N[C@@H](C)c1ccc(C2CCN(c3ccc(OC(C)C)cc3)CC2)cc1` [Example 1.135], the IC50 was 340 nM. The figure for `CC(=O)NC(C)Cc1ccc(C2CCN(c3ccc(OC4CC4)cc3)CC2)cc1` (centres unmarked) [Example 2.9] is 460 nM; for `CC(=O)N[C@@H](C)c1ccc(C2CCN(c3ncc(C(=O)NCc4ccoc4)cn3)CC2)cc1` [Example 18.32] it is 5300 nM. Then `CC(=O)N[C@@H](C)c1ccc(C2CCN(c3cccc(O)c3)CC2)cc1` [Example 1.27, (S)—N-{1-(4-[1-(3-hydroxyphenyl)-piperidin-4-yl]-phenyl}-ethyl)-acetamide], with 5800 nM; and `CC(=O)N[C@@H](C)c1ccc(C2CCN(c3ccc(F)c(F)c3)CC2)cc1` [Example 1.163], with 670 nM.

For `CC(=O)N[C@@H](C)c1ccc(C2CCN(c3ccnc(OCC4(C#N)CC4)c3)CC2)cc1` [Example 19.28], the IC50 is 230 nM. Then `COc1cc(C)c(-c2cnc(N3CCC(c4ccc([C@H](C)NC(C)=O)cc4)CC3)nc2)c(C)c1` [Example 10.204], with 350 nM; and `CCOc1ccc(N2CCC(c3ccc([C@H](C)NC(=O)c4cocn4)cc3)CC2)cc1` [Example 6.47], with 730 nM. Then `CCCOc1ccc(N2CCC(c3ccc([C@H](C)NC(=O)OC)cc3)CC2)c(C#N)c1` [Example 1.131], with 190 nM; and `CC(=O)N[C@@H](C)c1ccc(C2CCN(c3ncc([N+](=O)[O-])cn3)CC2)cc1` [Example 4.39], with 1900 nM.
